Data set [1] addresses Fibroblast growth factor receptor 3 (Homo sapiens, UniProt P22607, G380R). Kind of data set: Inhibition of FGFR3 G380R mutant (unknown origin) by NanoBRET assay. (Bioluminescence resonance energy transfer reports proximity on the nanometre scale.)
A short description of data set [2]: Half life in monkey at 1 mg/kg, iv measured for 24 hrs by LC-MS/MS analysis. The note with it: rhesus monkey, in vivo. Type of data set: ADME, organism-based, Macaca mulatta.
Another data set relates to KG-1. Kind of data set: Inhibition of cell viability in human KG-1 cells harboring FGFR1-fusion incubated for 72 to 120 hrs by Cell Titer Glo assay. It counts as functional, cell-based.
Data set [3] can be described thus: AUC (last) in monkey at 1 mg/kg, iv measured for 24 hrs by LC-MS/MS analysis. It counts as ADME, organism-based, Macaca mulatta. The note with it: rhesus monkey, in vivo.
Data set [4] can be described thus: Clearance in dog at 1 mg/kg, iv measured for 24 hrs by LC-MS/MS analysis. It counts as ADME, organism-based, Canis lupus familiaris. Conditions: in vivo.
Data set [5] has as its target Fibroblast growth factor receptor 2 (Homo sapiens, UniProt P21802). Kind of data set: Inhibition of human FGFR2 by KINOMEscan analysis.
Data set [6] can be described thus: Tmax in Sprague-Dawley rat at 10 mg/kg, po measured for 24 hrs by LC-MS/MS analysis. Type of data set: ADME, organism-based. Conditions: in vivo.
The target of data set [7] is Vascular endothelial growth factor receptor 2 (Homo sapiens, UniProt P35968). Kind of data set: Inhibition of human VEGFR2 at 100 nM by KINOMEscan analysis relative to control.
Sequence of Vascular endothelial growth factor receptor 2 (P35968 whole entry): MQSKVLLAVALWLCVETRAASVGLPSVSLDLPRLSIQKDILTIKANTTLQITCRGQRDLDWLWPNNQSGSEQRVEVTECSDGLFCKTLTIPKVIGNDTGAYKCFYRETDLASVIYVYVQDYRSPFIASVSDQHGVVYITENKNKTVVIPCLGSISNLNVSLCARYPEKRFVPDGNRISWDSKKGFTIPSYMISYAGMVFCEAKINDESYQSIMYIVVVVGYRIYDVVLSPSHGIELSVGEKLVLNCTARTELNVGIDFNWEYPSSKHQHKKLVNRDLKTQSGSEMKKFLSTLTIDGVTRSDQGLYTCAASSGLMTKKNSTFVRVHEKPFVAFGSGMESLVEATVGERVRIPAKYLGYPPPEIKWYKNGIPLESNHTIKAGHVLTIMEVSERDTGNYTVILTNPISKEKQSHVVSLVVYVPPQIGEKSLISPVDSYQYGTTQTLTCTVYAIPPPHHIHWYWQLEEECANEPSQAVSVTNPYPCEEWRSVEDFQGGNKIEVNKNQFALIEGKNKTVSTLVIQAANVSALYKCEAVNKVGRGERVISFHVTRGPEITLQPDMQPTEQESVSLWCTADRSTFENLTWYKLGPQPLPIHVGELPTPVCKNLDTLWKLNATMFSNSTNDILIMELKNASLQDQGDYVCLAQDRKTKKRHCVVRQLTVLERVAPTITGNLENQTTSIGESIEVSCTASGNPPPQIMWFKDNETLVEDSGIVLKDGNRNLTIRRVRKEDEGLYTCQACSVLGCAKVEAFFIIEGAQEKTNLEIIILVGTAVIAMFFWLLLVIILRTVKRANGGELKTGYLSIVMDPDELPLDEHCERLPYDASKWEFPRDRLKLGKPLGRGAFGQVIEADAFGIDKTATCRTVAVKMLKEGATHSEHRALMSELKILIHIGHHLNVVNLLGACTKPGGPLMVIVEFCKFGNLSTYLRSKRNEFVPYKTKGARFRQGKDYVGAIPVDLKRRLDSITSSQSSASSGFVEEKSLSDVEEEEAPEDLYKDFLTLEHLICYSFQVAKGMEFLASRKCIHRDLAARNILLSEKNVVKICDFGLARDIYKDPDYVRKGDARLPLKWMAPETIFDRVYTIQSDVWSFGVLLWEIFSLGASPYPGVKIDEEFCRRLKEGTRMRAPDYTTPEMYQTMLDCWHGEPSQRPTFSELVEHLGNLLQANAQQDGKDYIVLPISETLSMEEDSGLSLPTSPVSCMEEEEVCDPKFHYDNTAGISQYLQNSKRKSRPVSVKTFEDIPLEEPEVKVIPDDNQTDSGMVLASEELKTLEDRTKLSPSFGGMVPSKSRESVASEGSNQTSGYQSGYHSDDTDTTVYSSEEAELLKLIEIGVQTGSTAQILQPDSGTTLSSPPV
Data set [8] is described as follows: Tmax in monkey at 10 mg/kg, po measured for 24 hrs by LC-MS/MS analysis. It counts as ADME, organism-based, Macaca mulatta. Conditions: rhesus monkey, in vivo.
The nature of data set [9]: Cmax in monkey at 10 mg/kg, po measured for 24 hrs by LC-MS/MS analysis. Conditions: rhesus monkey, in vivo. It counts as ADME, organism-based, Macaca mulatta.
In data set [10] the target is Fibroblast growth factor receptor 3 (Homo sapiens, UniProt P22607, K650E). Kind of data set: Inhibition of FGFR3 K650E mutant (unknown origin) by mobility shift assay.
Sequence of Fibroblast growth factor receptor 3 (Homo sapiens, UniProt P22607, K650E) (P22607 23-806 K650E limits assumed): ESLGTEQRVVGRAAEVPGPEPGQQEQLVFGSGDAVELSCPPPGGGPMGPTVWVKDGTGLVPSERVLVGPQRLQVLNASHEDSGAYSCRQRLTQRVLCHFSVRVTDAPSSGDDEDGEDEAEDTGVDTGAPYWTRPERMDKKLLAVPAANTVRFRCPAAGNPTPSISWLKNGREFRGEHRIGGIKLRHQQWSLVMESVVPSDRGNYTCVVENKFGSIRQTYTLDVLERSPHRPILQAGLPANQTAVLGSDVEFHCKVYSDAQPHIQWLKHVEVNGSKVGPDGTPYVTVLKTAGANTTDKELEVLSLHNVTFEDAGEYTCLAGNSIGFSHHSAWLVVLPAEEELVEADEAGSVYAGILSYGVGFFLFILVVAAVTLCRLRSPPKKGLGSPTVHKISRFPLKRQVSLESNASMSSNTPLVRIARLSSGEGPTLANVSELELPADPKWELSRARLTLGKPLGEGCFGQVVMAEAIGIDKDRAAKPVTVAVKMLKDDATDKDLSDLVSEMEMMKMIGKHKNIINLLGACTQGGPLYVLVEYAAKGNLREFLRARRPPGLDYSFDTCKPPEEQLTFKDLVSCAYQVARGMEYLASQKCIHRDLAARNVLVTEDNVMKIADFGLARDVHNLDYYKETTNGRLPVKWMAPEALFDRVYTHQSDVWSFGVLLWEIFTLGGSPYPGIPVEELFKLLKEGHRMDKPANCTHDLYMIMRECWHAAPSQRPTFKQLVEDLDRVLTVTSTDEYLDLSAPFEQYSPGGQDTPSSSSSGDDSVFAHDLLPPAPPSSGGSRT
Data set [11] in a line: Half life in dog at 10 mg/kg, po measured for 24 hrs by LC-MS/MS analysis. The note with it: in vivo. Type of data set: ADME, organism-based, Canis lupus familiaris.
Data set [12] in a line: AUC (last) in dog at 1 mg/kg, iv measured for 24 hrs by LC-MS/MS analysis. Type of data set: ADME, organism-based, Canis lupus familiaris. The note with it: in vivo.
The nature of data set [13]: Thermodynamic solubility in FaSSIF. It counts as ADME. Conditions: read-out: Therm_solubility.
The nature of data set [14]: Volume of distribution in dog at 1 mg/kg, iv measured for 24 hrs by LC-MS/MS analysis. The note with it: in vivo. Type of data set: ADME, organism-based, Canis lupus familiaris.
Data set [15] addresses Fibroblast growth factor receptor 1 (Homo sapiens, UniProt P11362). Kind of data set: Inhibition of human FGFR1 by KINOMEscan analysis.

In brackets after ≈: the same amount, converted by molar mass.

Sequence of Fibroblast growth factor receptor 2 (P21802 whole entry): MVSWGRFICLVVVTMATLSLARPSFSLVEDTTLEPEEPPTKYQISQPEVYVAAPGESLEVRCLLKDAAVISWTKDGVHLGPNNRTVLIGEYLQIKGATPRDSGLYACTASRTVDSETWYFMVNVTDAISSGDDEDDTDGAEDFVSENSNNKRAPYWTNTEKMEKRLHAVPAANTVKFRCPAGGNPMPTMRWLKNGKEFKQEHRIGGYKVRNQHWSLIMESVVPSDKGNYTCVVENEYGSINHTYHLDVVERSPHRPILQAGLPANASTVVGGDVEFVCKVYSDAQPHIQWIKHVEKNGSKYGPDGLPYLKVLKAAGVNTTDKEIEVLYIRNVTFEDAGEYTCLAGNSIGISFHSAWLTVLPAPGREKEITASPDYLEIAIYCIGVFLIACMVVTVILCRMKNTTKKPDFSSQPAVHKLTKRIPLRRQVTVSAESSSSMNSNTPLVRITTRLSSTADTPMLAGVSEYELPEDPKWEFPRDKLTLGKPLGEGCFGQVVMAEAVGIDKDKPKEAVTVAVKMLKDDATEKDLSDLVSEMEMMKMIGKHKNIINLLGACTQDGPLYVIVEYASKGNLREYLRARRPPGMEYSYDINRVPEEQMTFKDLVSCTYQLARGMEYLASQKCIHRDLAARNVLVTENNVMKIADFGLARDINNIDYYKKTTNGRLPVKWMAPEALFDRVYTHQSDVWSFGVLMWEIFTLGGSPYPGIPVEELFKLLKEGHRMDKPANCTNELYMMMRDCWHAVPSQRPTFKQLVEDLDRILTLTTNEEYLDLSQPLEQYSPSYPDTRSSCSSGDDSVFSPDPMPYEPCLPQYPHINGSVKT
Sequence of Fibroblast growth factor receptor 3 (Homo sapiens, UniProt P22607, G380R) (P22607 23-806 G380R limits assumed): as the sequence (P22607 23-806 K650E limits assumed) above, with G358R, E628K counted along it
Sequence of Fibroblast growth factor receptor 1 (P11362 whole entry): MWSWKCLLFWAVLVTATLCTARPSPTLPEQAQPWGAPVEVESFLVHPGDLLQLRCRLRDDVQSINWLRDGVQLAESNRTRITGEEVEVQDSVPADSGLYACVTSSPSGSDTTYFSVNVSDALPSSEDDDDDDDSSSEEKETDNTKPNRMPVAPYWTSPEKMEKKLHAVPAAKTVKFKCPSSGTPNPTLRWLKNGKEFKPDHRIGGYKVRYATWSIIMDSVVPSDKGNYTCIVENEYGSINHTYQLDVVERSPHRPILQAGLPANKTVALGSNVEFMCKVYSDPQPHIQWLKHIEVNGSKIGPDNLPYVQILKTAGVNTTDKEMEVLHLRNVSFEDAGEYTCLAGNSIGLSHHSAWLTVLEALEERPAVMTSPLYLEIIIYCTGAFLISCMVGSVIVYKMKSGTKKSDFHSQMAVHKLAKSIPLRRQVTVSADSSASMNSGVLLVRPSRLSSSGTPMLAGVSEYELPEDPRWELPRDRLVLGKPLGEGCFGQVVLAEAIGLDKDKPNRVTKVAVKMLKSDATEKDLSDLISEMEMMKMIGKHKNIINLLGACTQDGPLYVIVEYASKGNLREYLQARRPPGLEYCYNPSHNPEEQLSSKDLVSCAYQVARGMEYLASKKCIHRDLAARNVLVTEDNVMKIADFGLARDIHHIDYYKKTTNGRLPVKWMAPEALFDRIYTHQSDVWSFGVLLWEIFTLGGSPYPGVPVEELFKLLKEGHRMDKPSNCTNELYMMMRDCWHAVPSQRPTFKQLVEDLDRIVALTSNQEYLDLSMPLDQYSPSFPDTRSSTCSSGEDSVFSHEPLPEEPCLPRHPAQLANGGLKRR

One may read the IC50 as the concentration needed to halve the response being measured. The half-life is how long it takes for the measured level to halve. What is called AUC(0-t) is exposure summed from dosing to a finite time, without extrapolation to infinity. As usually defined, the clearance is the volume of plasma or blood freed of the substance per unit of time. A word on the Tmax: it is the time at which the peak concentration occurs. As usually defined, the inhibition is the drop in the measured response relative to a control, in per cent. One may read the Cmax as the peak of the concentration-time curve. The Vd is the apparent volume that relates the amount in the body to the concentration in plasma or blood. Consider `C[C@@H](Oc1ccc2[nH]nc(-c3ccc(N4CC5(C4)CN(S(C)(=O)=O)C5)nc3)c2c1)c1c(Cl)cncc1Cl`, for which the IC50 in [1] is 21 nM; in the data set on KG-1 it was 109 nM; in data set [5], 7 nM; in data set [10], 2.8 nM; in data set [15], 108 nM. Besides, the half-life in data set [2] was 1.17 h; in data set [11], 24.8 h. For the same compound, the AUC(0-t) at 24 h stood at 1500 ng·h/mL in data set [3] and 5930 ng·h/mL in data set [12]. Further, in data set [4], the clearance is 2.68 mL/min/kg. For the same compound, the figures for the Tmax in data set [6] and in data set [8] were 4 h and 6 h, respectively. The compound further had an inhibition in data set [7] of less than 90%. For the same compound, the Cmax in data set [9] turned out to be 1210 ng/mL. For the same compound, the solubility thermodynamic in [13] was found to be 20 µM (≈ 11.2 µg/mL). Moreover, in data set [14], the Vd turned out to be 1.12 L/kg.

The record behind these values is ChEMBL document CHEMBL5579895, “Discovery of TYRA-300: First Oral Selective FGFR3 Inhibitor for the Treatment of Urothelial Cancers and Achondroplasia” (J Med Chem, 2024).
